These results are taken from patent US20240148889A1, “STABILIZED TRIOXACARCIN ANTIBODY DRUG CONJUGATES AND USES THEREOF” (President and Fellows of Harvard College, priority 2020, published 2024).

Entries after “also recorded” stand apart in the source; their conditions may differ.

The test system of one data set is LXFL 529L. The conditions noted are these: lung cancer cell line; cited from earlier work.
The test system of a further data set is H-460. The conditions noted are these: lung cancer cell line; cited from earlier work.
The subject of another data set is MCF-7. The conditions noted are these: mammary cancer cell line; cited from earlier work.
Another data set has as its system SF-268. The conditions noted are these: CNS cancer cell line; cited from earlier work.
The next data set has as its system tumor. The conditions noted are these: cited from earlier work.
The test system of the next data set is gram-positive. The conditions noted are these: cited from earlier work.
A further data set relates to H460 cells. The data set is described as follows: Cell proliferation assay (resazurin, CellTiter-Blue), H460. The format is cell-based. The conditions noted are these: for IC50: Homo sapiens, NCI-H460, 48 h, 2 days incubation, determined in triplicate; for cellular toxicity against H460 cells relative to the parent epoxide: relative to parent epoxide 1. As to the method:
(§1) Cell Culture: Cell line NCI-H460, was purchased from American Type Culture Collection (ATCC). H460 cells were maintained in RPMI-1640 medium and HT-29 cells were maintained in McCoy's 5A medium, supplemented with 10% fetal bovine serum (Life Technologies, UK).
(§2) Cell Proliferation Assay: Cells were plated in black-walled 96-well plates (3000-4000 cells per well). Stock solutions of each compound were diluted serially and the resulting solutions were administrated to cells to achieve final concentrations of 1.1 nM to 2.5 μM in 100 μL total volume. After incubating at 37° C. (5% CO2) for 2 days (H460), 20 μL of resazurin solution (Promega CellTiter-Blue® Cell Viability Assay) was added to each well. After incubating at 37° C. for 4.0 h, the fluorescence (560 nm excitation/590 nm emission) was recorded using a microplate reader (SpectraMax i3) as a measure of viable cells. IC50 values, determined in triplicate, were calculated using a four-parameter logistic equation.

Data set [1] has as its system self-complementary duplex DNA oligonucleotide d(AATTACGTAATT). The data set is described as follows: DNA alkylation of duplex oligonucleotide, gel electrophoresis and LC-MS. The format is biochemical. The source says: In developing the compounds described herein, it was anticipated that reversible opening of the epoxide with a latent leaving group would reduce the reactivity of the warhead while attached to the antibody but would allow for reformation of the epoxide under appropriate conditions. After exploration of a variety of possible epoxide adducts using a potent analog (1, Me-ddx), it was discovered that halohydrin FSTs were not only readily synthesized under Lewis- or Brønsted-acid catalysis, but also reverted to the epoxide cleanly in pH 7.4 cell growth media at 37° C. (Scheme 7). […] The DNA-alkylating capability of the bromohydrin FST 3 in comparison to a set of FST analogs of varying potency by incubation with a self-complementary duplex DNA oligonucleotide d([…]) for 4 h at 23° C. then analysis by gel electrophoresis and LC-MS was investigated.

The test system of another data set is HT-29 (HER2−). The data set is described as follows: Cell proliferation assay, HT-29. The conditions noted are these: Homo sapiens. It is filed as cell-based. As for the experimental part: as §1, §2
For another data set, the system named is SK-BR-3 (HER2+). The data set is described as follows: Cell proliferation assay, SK-BR-3. The format is cell-based. The conditions noted are these: Homo sapiens. As to the method:
as §2

For the next data set, the system named is NCI-N87 (HER2+). The data set is described as follows: Cell proliferation assay, NCI-N87. The format is cell-based. The conditions noted are these: Homo sapiens.
Data set [2] can be described thus: Liberation of bromohydrin by immolative spacer cyclization in buffer. The format is physicochemical. The source says:
In order to prevent premature reversion to the epoxide, a system in which the trioxacarcin prodrug would be linked through the tertiary alcohol of the halohydrin was envisioned. Therefore, epoxide formation could only occur once the payload had been released from the antibody upon delivery to the cellular target. Despite recent advances in the field, technology for linkage through alcohol functional groups is limited. Synthesis of benzyl ether, ester, carbonate, carbamate, diphosphate, and silyl linkers at the tertiary alcohol of 3 (bromohydrin) through previously reported methods all failed. Indeed, the electron withdrawing substituents surrounding the halohydrin alcohol (two P-acetals, a y-acetal and a bromide) coupled with the steric encumbrance they impose prevented reaction of this alcohol with nearly all electrophiles evaluated. […] It was believed that this diamine spacer would release free bromohydrin after peptidase cleavage of the linker. Simultaneous Boc deprotection of both the phenol and amine with trifluoroacetic acid (TFA) provided the TFA salt of the amine 9 after concentration, which was evaluated immediately for liberation of bromohydrin 3. […] Modifications of the diamine spacer unit to increase the rate of cyclization were unsuccessful. […]

A short description of data set [3]: Compound Stability Assay (buffer, 37° C., LC-MS). The format is physicochemical. As for the experimental part: Compound Stability Assay: In a 1.5 mL screw-top conical plastic vial, the desired compound as a solution in DMSO (5 mM, 6 μL, 30 nmol) was mixed with a solution of N-acetylcysteine in DMSO (10 mM, 6 μL, […], 2 equiv) to quench the maleimide. The mixture was diluted with either pH 5.0 sodium acetate or pH 7.4 phosphate buffer containing 8 mM N-acetylcysteine (282 μL). 1-naphthalene acetic acid in DMSO (5 mM, 6 μL, 30 nmol) was added as an internal standard. In the case of testing free drug stability, no N-acetylcysteine solution was added and instead the amount of buffer added was increased an equivalent amount to compensate (288 μL total buffer). The vial was placed in a heating block at 37° C. and protected from direct light. 25 μL aliquots of the reaction mixture were removed at various time points and analyzed by LC-MS. LC-MS peaks were integrated within the Agilent LC-MS software and the areas of each peak were normalized to 1-napthalene acetic acid at 280 nm. Percent compound remaining is defined as the normalized peak area at a given time point divided by the normalized peak area at 0 hours×100%.

The target of the next data set is Cathepsin B (Homo sapiens, UniProt P07858). The data set is described as follows: Release Kinetics Assay with Cathepsin B. The format is biochemical. The conditions noted are these: pH 5.0, 37° C. As to the method: Release Kinetics Assay: In a 1.5 mL screw-top conical plastic vial, the desired compound as a solution in DMSO (5 mM, 6 μL, 30 nmol) was mixed with a solution of N-acetylcysteine in DMSO (10 mM, 6 μL, […], 2 equiv) to quench the maleimide. The mixture was diluted with pH 5.0 sodium acetate buffer containing 8 mM N-acetylcysteine (255 μL). 1-napthalene acetic acid in DMSO (5 mM, 6 μL, 30 nmol) was added as an internal standard. A 9.2 U/mL solution of Cathepsin B in pH 5.0 buffer was added. The vial was placed in a heating block at 37° C. and protected from direct light. 25 μL aliquots of the reaction mixture were removed at various time points and analyzed by LC-MS. LC-MS peaks were integrated within the Agilent LC-MS software and the areas of each peak were normalized to 1-napthalene acetic acid at 280 nm. Percent drug-linker remaining is defined as the normalized peak area at a given time point divided by the normalized peak area at 0 hours×100%.

As for `COc1c2c(c(O)c3c4c(c(C)cc13)[C@@H]1O[C@@]3(C(OC)OC)O[C@@H]1[C@@](O[C@H]1C[C@@H](O)[C@@](O)(C(C)=O)[C@H](C)O1)(O4)[C@@]31CO1)C(=O)[C@@H](O)C[C@@H]2O[C@H]1C[C@@](C)(O)[C@H](OC(C)=O)[C@H](C)O1` [Trioxacarcin A], in the data set with LXFL 529L, the “IC70 LXFL 529L” value is reported as “subnanmolar”. For the same molecule, the “IC70 H-460” value in the data set on H-460 is reported as “subnanmolar”. Further, the “IC70 MCF-7” value in the data set with MCF-7 is “subnanmolar”. In addition, the “IC70 SF-268” value with SF-268 was “subnanmolar”. Also, in the data set on tumor, the “anti-tumor activity in murine models” value was “anti-tumor activity”. Besides, the gram-positive antibiotic activity result in the data set with gram-positive is on record as “gram-positive antibiotic activity”.

In the case of `COc1c2c(c(O)c3c4c(c(C)cc13)C1OC3(C(OC)OC)OC1C(O[C@H]1C[C@@H](O)[C@@](O)(C(C)=O)[C@H](C)O1)(O4)C3(O)CO)C(=O)C(O)CC2O[C@H]1C[C@@](C)(O)[C@H](OC(C)=O)[C@H](C)O1` (stereo partly shown) [Trioxacarcin B], in the data set on tumor, the “anti-tumor activity in murine models” value is given as “anti-tumor activity”. Also, the gram-positive antibiotic activity entry with gram-positive is “gram-positive antibiotic activity”.

With `COc1c2c(c(O)c3c4c(c(C)cc13)C1OC3(C(OC)OC)OC1C(OC1CC(O)C(O)(C(C)O)C(C)O1)(O4)C31CO1)C(=O)C(O)CC2OC1COC(C)(OC(C)=O)C(C)(O)C1` (stereo not shown) [Trioxacarcin C], the “anti-tumor activity in murine models” value with tumor was “anti-tumor activity”. In addition, the gram-positive antibiotic activity entry in the data set with gram-positive was “gram-positive antibiotic activity”.

Regarding `COc1c2c(c(O)c3c4c(c(C)cc13)C1OC3(C(OC)OC)OC1[C@@](OC)(O4)[C@@]3(O)CCl)C(=O)CCC2` (stereo partly shown) [compound 2], the “potency relative to the bromohydrin” value in the data set with H460 cells (H460 cells, relative to bromohydrin 3) is reported as “an order of magnitude less potent”. For the same molecule, in the data set on H460 cells (H460 cells), the IC50 came out at 21 nM.

Regarding `COc1c2c(c(O)c3c4c(c(C)cc13)C1OC3(C(OC)OC)OC1[C@@](OC)(O4)[C@@]3(O)CBr)C(=O)CCC2` (stereo partly shown) [compound 3], half-maximal inhibition in the data set with H460 cells (H460 cells) (IC50) required 2 nM. For the same molecule, the “cellular toxicity against H460 cells relative to the parent epoxide” value with H460 cells was “no loss in cellular toxicity”. For the same molecule, the “reversion to the epoxide during DNA incubation” value in [1] (4 h at 23° C.) was “did not revert to the epoxide”. Also, the DNA alkylation entry in [1] (incubation with d(AATTACGTAATT) for 4 h at 23° C.) is recorded as “did not alkylate DNA”.

As to `COc1c2c(c(O)c3c4c(c(C)cc13)C1OC3(C(OC)OC)OC1[C@@](OC)(O4)[C@@]3(O)CI)C(=O)CCC2` (stereo partly shown) [compound 4], the 50% inhibitory concentration (IC50) in the data set with H460 cells (H460 cells) turned out to be 4 nM; with HT-29 (HER2−), 7 nM; in the data set on SK-BR-3 (HER2+) it was 4 nM; with NCI-N87 (HER2+), 1 nM. Also, in the data set with H460 cells, the “cellular toxicity against H460 cells relative to the parent epoxide” value was “no loss in cellular toxicity”.

With `CNCCNC(=O)O[C@]1(CBr)C2(C(OC)OC)OC3c4c(C)cc5c(OC)c6c(c(O)c5c4O[C@]1(OC)C3O2)C(=O)CCC6` (stereo partly shown) [compound 9], the “liberation of bromohydrin 3 through diamine spacer cyclization” value in data set [2] (37° C., pH 7.4 or 5.0 buffer) is recorded as “no liberation of bromohydrin was observed”.

As for `CNCCCC(=O)O[C@]1(CBr)C2(C(OC)OC)OC3c4c(C)cc5c(OC)c6c(c(O)c5c4O[C@]1(OC)C3O2)C(=O)CCC6` (stereo partly shown) [compound 13], the “liberation of the bromohydrin through ester spacer cyclization” value in data set [2] (pH 7.4 or 5.0, extended incubation at 37° C. or 50° C.) is reported as “failed to liberate the bromohydrin”.

`COc1c2c(c(O)c3c4c(c(C)cc13)C1OC3(C(OC)OC)OC1[C@@](OC)(O4)[C@]3(CBr)OCN(CCS(C)(=O)=O)C(=O)OCc1ccc(NC(=O)[C@H](C)NC(=O)[C@@H](NC(=O)CCCCCN3C(=O)C=CC3=O)C(C)C)cc1)C(=O)CCC2` (stereo partly shown) [compound 19]: in data set [3] (37° C., pH 7.4 buffer), the “stability of drug-linker quenched with N-acetyl cysteine” value is on record as “stable for days”. The “payload release upon exposure to Cathepsin B” value at Cathepsin B was “excellent release kinetics; also recorded: rapidly liberated FST-bromohydrin payload 3”.

For the molecule `COCCOCCOCCOCCOCCOCCOCCC(=O)NCCCC[C@H](NC(=O)CCOCCOCCOCCOCCN1C(=O)C=CC1=O)C(=O)N[C@H](C(=O)N[C@@H](C)C(=O)Nc1ccc(COC(=O)N(CCS(C)(=O)=O)CO[C@]2(CBr)C3(C(OC)OC)OC4c5c(C)cc6c(OC)c7c(c(O)c6c5O[C@]2(OC)C4O3)C(=O)CCC7)cc1)C(C)C` (stereo partly shown) [compound 27], the “stability of drug-linker at pH 5.0 and 7.4” value in data set [3] (37° C., pH 5.0 and pH 7.4) was “exceptionally stable”. For the same molecule, the free drug released result in [3] (after 1 week at pH 7.4, 37° C.) is given as “no detectable free drug released”. For the same molecule, the “payload release upon exposure to Cathepsin B” value on Cathepsin B is recorded as “rapidly releases payload”.
